According to the NIST ThermoML archive (doi:10.1016/j.fluid.2017.12.010):
Numbers after ± are expanded uncertainties.

Experiment: xn = mol fraction of the nth substance listed
Conditions: Liquid, Vibrating tube method

CCCCCCCCCCCC [dodecane] + CCCCCCCCCC
mass density (283.29 K, 100 kPa, x2 = 0): 756 ± 3 kg/m3 | mass density (283.29 K, 1000 kPa, x2 = 0): 757 ± 3 kg/m3 | mass density (283.29 K, 3000 kPa, x2 = 0): 758 ± 3 kg/m3 | mass density (283.3 K, 5000 kPa, x2 = 0): 760 ± 3 kg/m3 | mass density (283.3 K, 10000 kPa, x2 = 0): 763 ± 3 kg/m3 | mass density (283.3 K, 30000 kPa, x2 = 0): 775 ± 3 kg/m3 | mass density (283.3 K, 40000 kPa, x2 = 0): 780 ± 3 kg/m3 | mass density (283.3 K, 50000 kPa, x2 = 0): 785 ± 3 kg/m3 | mass density (283.3 K, 60000 kPa, x2 = 0): 790 ± 3 kg/m3 | mass density (283.31 K, 20000 kPa, x2 = 0): 769 ± 3 kg/m3 | mass density (283.31 K, 70000 kPa, x2 = 0): 795 ± 3 kg/m3 | mass density (283.32 K, 80000 kPa, x2 = 0): 799 ± 3 kg/m3 | mass density (283.32 K, 90000 kPa, x2 = 0): 803 ± 3 kg/m3 | mass density (283.46 K, 100 kPa, x2 = 0.4436): 748 ± 3 kg/m3 | mass density (283.47 K, 1000 kPa, x2 = 0.4436): 749 ± 3 kg/m3 | mass density (283.47 K, 5000 kPa, x2 = 0.4436): 752 ± 3 kg/m3 | mass density (283.48 K, 10000 kPa, x2 = 0.4436): 755 ± 3 kg/m3 | mass density (283.48 K, 20000 kPa, x2 = 0.4436): 762 ± 3 kg/m3 | mass density (283.48 K, 40000 kPa, x2 = 0.4436): 773 ± 3 kg/m3 | mass density (283.49 K, 30000 kPa, x2 = 0.4436): 767 ± 3 kg/m3 | mass density (283.49 K, 60000 kPa, x2 = 0.4436): 783 ± 3 kg/m3 | mass density (283.49 K, 80000 kPa, x2 = 0.4436): 792 ± 3 kg/m3 | mass density (283.49 K, 100000 kPa, x2 = 0.4436): 801 ± 3 kg/m3 | mass density (283.52 K, 100 kPa, x2 = 0.2297): 752 ± 3 kg/m3 | mass density (283.52 K, 1000 kPa, x2 = 0.2297): 753 ± 3 kg/m3 | mass density (283.52 K, 5000 kPa, x2 = 0.2297): 755 ± 3 kg/m3 | mass density (283.52 K, 10000 kPa, x2 = 0.2297): 759 ± 3 kg/m3 | mass density (283.52 K, 20000 kPa, x2 = 0.2297): 765 ± 3 kg/m3 | mass density (283.52 K, 30000 kPa, x2 = 0.2297): 771 ± 3 kg/m3 | mass density (283.52 K, 40000 kPa, x2 = 0.2297): 776 ± 3 kg/m3 | mass density (283.53 K, 60000 kPa, x2 = 0.2297): 786 ± 3 kg/m3 | mass density (283.53 K, 80000 kPa, x2 = 0.2297): 796 ± 3 kg/m3 | mass density (283.54 K, 100000 kPa, x2 = 0.2297): 804 ± 3 kg/m3 | mass density (283.57 K, 1000 kPa, x2 = 0.7841): 743 ± 3 kg/m3 | mass density (283.58 K, 100 kPa, x2 = 0.7841): 742 ± 3 kg/m3 | mass density (283.59 K, 5000 kPa, x2 = 0.7841): 745 ± 3 kg/m3 | mass density (283.6 K, 10000 kPa, x2 = 0.7841): 749 ± 3 kg/m3 | mass density (283.61 K, 100 kPa, x2 = 0.6433): 745 ± 3 kg/m3 | mass density (283.61 K, 1000 kPa, x2 = 0.6433): 745 ± 3 kg/m3 | mass density (283.61 K, 20000 kPa, x2 = 0.7841): 755 ± 3 kg/m3 | mass density (283.61 K, 30000 kPa, x2 = 0.7841): 761 ± 3 kg/m3 | mass density (283.61 K, 40000 kPa, x2 = 0.7841): 767 ± 3 kg/m3 | mass density (283.61 K, 60000 kPa, x2 = 0.7841): 777 ± 3 kg/m3 | mass density (283.61 K, 80000 kPa, x2 = 0.7841): 787 ± 3 kg/m3 | mass density (283.61 K, 100000 kPa, x2 = 0.7841): 795 ± 3 kg/m3 | mass density (283.62 K, 5000 kPa, x2 = 0.6433): 748 ± 3 kg/m3 | mass density (283.62 K, 10000 kPa, x2 = 0.6433): 752 ± 3 kg/m3 | mass density (283.62 K, 20000 kPa, x2 = 0.6433): 758 ± 3 kg/m3 | mass density (283.62 K, 30000 kPa, x2 = 0.6433): 764 ± 3 kg/m3 | mass density (283.62 K, 40000 kPa, x2 = 0.6433): 770 ± 3 kg/m3 | mass density (283.62 K, 60000 kPa, x2 = 0.6433): 780 ± 3 kg/m3 | mass density (283.62 K, 80000 kPa, x2 = 0.6433): 789 ± 3 kg/m3 | mass density (283.62 K, 100000 kPa, x2 = 0.6433): 798 ± 3 kg/m3 | mass density (293.17 K, 100 kPa, x2 = 0): 749 ± 3 kg/m3 | mass density (293.18 K, 1000 kPa, x2 = 0): 750 ± 3 kg/m3 | mass density (293.19 K, 5000 kPa, x2 = 0): 753 ± 3 kg/m3 | mass density (293.19 K, 10000 kPa, x2 = 0): 756 ± 3 kg/m3 | mass density (293.19 K, 20000 kPa, x2 = 0): 763 ± 3 kg/m3 | mass density (293.19 K, 30000 kPa, x2 = 0): 769 ± 3 kg/m3 | mass density (293.19 K, 40000 kPa, x2 = 0): 774 ± 3 kg/m3 | mass density (293.19 K, 50000 kPa, x2 = 0): 780 ± 3 kg/m3 | mass density (293.19 K, 70000 kPa, x2 = 0): 789 ± 3 kg/m3 | mass density (293.19 K, 80000 kPa, x2 = 0): 794 ± 3 kg/m3 | mass density (293.19 K, 90000 kPa, x2 = 0): 798 ± 3 kg/m3 | mass density (293.19 K, 100000 kPa, x2 = 0): 802 ± 3 kg/m3 | mass density (293.2 K, 60000 kPa, x2 = 0): 785 ± 3 kg/m3 | mass density (293.43 K, 10000 kPa, x2 = 0.4436): 749 ± 3 kg/m3 | mass density (293.43 K, 20000 kPa, x2 = 0.4436): 755 ± 3 kg/m3 | mass density (293.43 K, 30000 kPa, x2 = 0.2297): 765 ± 3 kg/m3 | mass density (293.43 K, 30000 kPa, x2 = 0.4436): 761 ± 3 kg/m3 | mass density (293.43 K, 40000 kPa, x2 = 0.2297): 771 ± 3 kg/m3 | mass density (293.43 K, 40000 kPa, x2 = 0.4436): 767 ± 3 kg/m3 | mass density (293.43 K, 60000 kPa, x2 = 0.2297): 781 ± 3 kg/m3 | mass density (293.43 K, 60000 kPa, x2 = 0.4436): 778 ± 3 kg/m3 | mass density (293.43 K, 80000 kPa, x2 = 0.4436): 787 ± 3 kg/m3 | mass density (293.43 K, 100000 kPa, x2 = 0.4436): 796 ± 3 kg/m3 | mass density (293.44 K, 100 kPa, x2 = 0.4436): 741 ± 3 kg/m3 | mass density (293.44 K, 1000 kPa, x2 = 0.4436): 742 ± 3 kg/m3 | mass density (293.44 K, 5000 kPa, x2 = 0.4436): 745 ± 3 kg/m3 | mass density (293.44 K, 20000 kPa, x2 = 0.2297): 759 ± 3 kg/m3 | mass density (293.44 K, 80000 kPa, x2 = 0.2297): 790 ± 3 kg/m3 | mass density (293.44 K, 100000 kPa, x2 = 0.2297): 799 ± 3 kg/m3 | mass density (293.45 K, 100 kPa, x2 = 0.2297): 745 ± 3 kg/m3 | mass density (293.45 K, 1000 kPa, x2 = 0.2297): 746 ± 3 kg/m3 | mass density (293.45 K, 5000 kPa, x2 = 0.2297): 749 ± 3 kg/m3 | mass density (293.45 K, 10000 kPa, x2 = 0.2297): 752 ± 3 kg/m3 | mass density (293.51 K, 100000 kPa, x2 = 0.6433): 793 ± 3 kg/m3 | mass density (293.52 K, 100 kPa, x2 = 0.6433): 738 ± 3 kg/m3 | mass density (293.52 K, 1000 kPa, x2 = 0.6433): 738 ± 3 kg/m3 | mass density (293.52 K, 5000 kPa, x2 = 0.6433): 741 ± 3 kg/m3 | mass density (293.52 K, 10000 kPa, x2 = 0.6433): 745 ± 3 kg/m3 | mass density (293.52 K, 20000 kPa, x2 = 0.6433): 752 ± 3 kg/m3 | mass density (293.52 K, 30000 kPa, x2 = 0.6433): 758 ± 3 kg/m3 | mass density (293.52 K, 40000 kPa, x2 = 0.6433): 764 ± 3 kg/m3 | mass density (293.52 K, 60000 kPa, x2 = 0.6433): 774 ± 3 kg/m3 | mass density (293.52 K, 80000 kPa, x2 = 0.6433): 784 ± 3 kg/m3 | mass density (293.53 K, 60000 kPa, x2 = 0.7841): 772 ± 3 kg/m3 | mass density (293.53 K, 80000 kPa, x2 = 0.7841): 781 ± 3 kg/m3 | mass density (293.53 K, 100000 kPa, x2 = 0.7841): 790 ± 3 kg/m3 | mass density (293.54 K, 100 kPa, x2 = 0.7841): 735 ± 3 kg/m3 | mass density (293.54 K, 1000 kPa, x2 = 0.7841): 735 ± 3 kg/m3 | mass density (293.54 K, 5000 kPa, x2 = 0.7841): 738 ± 3 kg/m3 | mass density (293.54 K, 10000 kPa, x2 = 0.7841): 742 ± 3 kg/m3 | mass density (293.54 K, 20000 kPa, x2 = 0.7841): 749 ± 3 kg/m3 | mass density (293.54 K, 30000 kPa, x2 = 0.7841): 755 ± 3 kg/m3 | mass density (293.54 K, 40000 kPa, x2 = 0.7841): 761 ± 3 kg/m3 | mass density (303.04 K, 30000 kPa, x2 = 0): 762 ± 3 kg/m3 | mass density (303.04 K, 100000 kPa, x2 = 0): 797 ± 3 kg/m3 | mass density (303.05 K, 100 kPa, x2 = 0): 742 ± 3 kg/m3 | mass density (303.05 K, 1000 kPa, x2 = 0): 743 ± 3 kg/m3 | mass density (303.05 K, 5000 kPa, x2 = 0): 746 ± 3 kg/m3 | mass density (303.05 K, 20000 kPa, x2 = 0): 756 ± 3 kg/m3 | mass density (303.05 K, 50000 kPa, x2 = 0): 774 ± 3 kg/m3 | mass density (303.05 K, 60000 kPa, x2 = 0): 779 ± 3 kg/m3 | mass density (303.05 K, 70000 kPa, x2 = 0): 784 ± 3 kg/m3 | mass density (303.05 K, 80000 kPa, x2 = 0): 789 ± 3 kg/m3 | mass density (303.05 K, 90000 kPa, x2 = 0): 793 ± 3 kg/m3 | mass density (303.06 K, 10000 kPa, x2 = 0): 749 ± 3 kg/m3 | mass density (303.06 K, 40000 kPa, x2 = 0): 768 ± 3 kg/m3
